In assay [1] the target is Gamma-aminobutyric acid receptor subunit alpha-4/beta-2/gamma-2 (Homo sapiens, UniProt P18507+P47870+P48169). In words: Agonist activity at recombinant human GABA-A alpha4beta2gamma2S receptor transiently expressed in human tsA201 cells incubated for 30 mins and measured up to 90 secs by FMP dye based FLIPR membrane potential blue assay. Format: cell-based.
The species entered for the next assay is Homo sapiens. Put plainly: Agonist activity at recombinant human GABA-A alpha3beta2gamma2S receptor transiently expressed in human tsA201 cells assessed as GABA-induced maximum response incubated for 30 mins and measured up to 90 secs by FMP dye based FLIPR membrane potential blue assay relative to GABA. In kind it is cell-based.
Assay [2] deals with T1, Gamma-aminobutyric acid receptor subunit rho-1 (Homo sapiens, UniProt P24046). In words: Agonist activity at recombinant human GABA-A rho-1 receptor transiently expressed in human tsA201 cells incubated for 30 mins and measured up to 90 secs by FMP dye based FLIPR membrane potential blue assay. Format: cell-based. Conditions: read-out: EC50.
The target of assay [3] is T2, GABA-A receptor; alpha-1/beta-2/gamma-2 (Homo sapiens, UniProt P14867+P18507+P47870).
T2 sequence (P14867 whole entry): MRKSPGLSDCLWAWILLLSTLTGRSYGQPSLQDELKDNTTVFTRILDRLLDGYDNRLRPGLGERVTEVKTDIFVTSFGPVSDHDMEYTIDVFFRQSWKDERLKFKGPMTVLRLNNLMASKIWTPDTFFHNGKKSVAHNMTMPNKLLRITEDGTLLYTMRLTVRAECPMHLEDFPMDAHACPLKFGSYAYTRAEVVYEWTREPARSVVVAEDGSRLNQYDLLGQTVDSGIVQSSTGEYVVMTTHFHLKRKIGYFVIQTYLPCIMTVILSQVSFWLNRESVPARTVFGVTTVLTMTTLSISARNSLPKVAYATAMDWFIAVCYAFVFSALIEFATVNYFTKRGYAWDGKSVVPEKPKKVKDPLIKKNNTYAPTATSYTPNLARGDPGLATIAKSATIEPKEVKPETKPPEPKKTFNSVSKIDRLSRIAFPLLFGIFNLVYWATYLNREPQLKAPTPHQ
T2 sequence (P47870 whole entry): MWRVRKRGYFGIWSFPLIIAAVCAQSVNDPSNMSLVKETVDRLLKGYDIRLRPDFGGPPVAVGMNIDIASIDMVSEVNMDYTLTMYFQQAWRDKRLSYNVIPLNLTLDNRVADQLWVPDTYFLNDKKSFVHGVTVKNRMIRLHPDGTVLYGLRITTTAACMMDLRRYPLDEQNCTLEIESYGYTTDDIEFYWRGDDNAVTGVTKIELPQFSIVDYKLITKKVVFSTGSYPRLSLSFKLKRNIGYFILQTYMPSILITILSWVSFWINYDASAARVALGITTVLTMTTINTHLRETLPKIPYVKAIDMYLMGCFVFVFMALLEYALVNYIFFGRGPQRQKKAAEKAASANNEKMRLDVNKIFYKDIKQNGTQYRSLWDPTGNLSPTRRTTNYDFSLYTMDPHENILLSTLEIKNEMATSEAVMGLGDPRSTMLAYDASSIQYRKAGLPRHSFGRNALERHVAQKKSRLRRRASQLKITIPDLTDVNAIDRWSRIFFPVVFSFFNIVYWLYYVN
T2 sequence (P18507 whole entry): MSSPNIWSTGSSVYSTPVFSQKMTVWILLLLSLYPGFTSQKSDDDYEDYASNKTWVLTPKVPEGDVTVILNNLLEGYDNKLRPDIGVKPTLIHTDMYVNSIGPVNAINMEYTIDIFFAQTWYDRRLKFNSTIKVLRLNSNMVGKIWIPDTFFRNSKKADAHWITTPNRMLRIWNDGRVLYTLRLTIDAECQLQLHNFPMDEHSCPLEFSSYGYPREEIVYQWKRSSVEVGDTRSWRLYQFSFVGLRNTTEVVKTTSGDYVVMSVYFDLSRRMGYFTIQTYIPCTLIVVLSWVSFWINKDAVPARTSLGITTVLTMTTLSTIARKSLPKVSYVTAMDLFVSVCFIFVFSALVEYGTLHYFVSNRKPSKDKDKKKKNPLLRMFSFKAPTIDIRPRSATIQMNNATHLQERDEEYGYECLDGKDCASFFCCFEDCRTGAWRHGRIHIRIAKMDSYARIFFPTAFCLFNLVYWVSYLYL
In words: Agonist activity at recombinant human GABA-A alpha1beta2gamma2S receptor transiently expressed in human tsA201 cells incubated for 30 mins and measured up to 90 secs by FMP dye based FLIPR membrane potential blue assay. In kind it is cell-based.

For assay [4], the target named is GABA-A receptor; anion channel. In words: Displacement of [3H]muscimol from GABA(A) receptor in Sprague-Dawley rat cortical synaptic membranes by liquid scintillation counting.
Assay [5] addresses T3, Gamma-aminobutyric acid receptor subunit alpha-5/beta-2/gamma-2 (Homo sapiens, UniProt P18507+P31644+P47870).
T3 sequence (P47870 whole entry): T2 sequence (P47870 whole entry)
T3 sequence (P18507 whole entry): T2 sequence (P18507 whole entry)
T3 sequence (P31644 whole entry): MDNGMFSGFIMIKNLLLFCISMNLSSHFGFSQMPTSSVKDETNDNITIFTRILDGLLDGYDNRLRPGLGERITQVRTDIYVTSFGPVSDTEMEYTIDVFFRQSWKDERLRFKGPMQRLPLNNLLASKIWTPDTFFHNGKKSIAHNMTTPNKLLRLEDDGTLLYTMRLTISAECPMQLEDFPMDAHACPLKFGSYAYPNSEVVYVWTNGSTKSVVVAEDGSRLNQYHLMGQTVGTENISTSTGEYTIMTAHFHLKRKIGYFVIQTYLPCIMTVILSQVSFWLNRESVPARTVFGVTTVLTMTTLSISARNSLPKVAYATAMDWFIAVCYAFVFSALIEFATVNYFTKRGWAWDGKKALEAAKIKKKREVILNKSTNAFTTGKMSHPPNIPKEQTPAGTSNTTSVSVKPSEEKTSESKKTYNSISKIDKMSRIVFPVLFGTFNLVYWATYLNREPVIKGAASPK
Put plainly: Agonist activity at recombinant human GABA-A alpha5beta2gamma2S receptor transiently expressed in human tsA201 cells incubated for 30 mins and measured up to 90 secs by FMP dye based FLIPR membrane potential blue assay. Format: cell-based.

Assay [6] concerns the target Gamma-aminobutyric acid receptor subunit alpha-4/beta-2/gamma-2 (Homo sapiens, UniProt P47870+P18507+P48169). In words: Agonist activity at recombinant human GABA-A alpha4beta2gamma2S receptor transiently expressed in human tsA201 cells assessed as GABA-induced maximum response incubated for 30 mins and measured up to 90 secs by FMP dye based FLIPR membrane potential blue assay relative to GABA. In kind it is cell-based.

Assay [7] has as its target GABA-A receptor; alpha-1/beta-2/gamma-2 (Homo sapiens) (UniProt P14867+P47870+P18507). In words: Agonist activity at recombinant human GABA-A alpha1beta2gamma2S receptor transiently expressed in human tsA201 cells assessed as GABA-induced maximum response incubated for 30 mins and measured up to 90 secs by FMP dye based FLIPR membrane potential blue assay relative to GABA. Format: cell-based.

Assay [8] addresses T1, Gamma-aminobutyric acid receptor subunit rho-1. Put plainly: Agonist activity at recombinant human GABA-A rho-1 receptor transiently expressed in human tsA201 cells assessed as GABA-induced maximum response incubated for 30 mins and measured up to 90 secs by FMP dye based FLIPR membrane potential blue assay relative to GABA. In kind it is cell-based.
A short description of the next assay: cells. Format: cell-based. Conditions: Homo sapiens, tsA201, 0.5 h.
Assay [9] concerns the target Gamma-aminobutyric acid receptor subunit alpha-5/beta-2/gamma-2 (Homo sapiens) (UniProt P47870+P18507+P31644). In words: Agonist activity at recombinant human GABA-A alpha5beta2gamma2S receptor transiently expressed in human tsA201 cells assessed as GABA-induced maximum response incubated for 30 mins and measured up to 90 secs by FMP dye based FLIPR membrane potential blue assay relative to GABA. In kind it is cell-based.

As usually defined, the Ki is a measure of affinity in units of concentration, obtained from inhibition or displacement. A low value points to tighter binding.

T1 sequence (P24046 whole entry): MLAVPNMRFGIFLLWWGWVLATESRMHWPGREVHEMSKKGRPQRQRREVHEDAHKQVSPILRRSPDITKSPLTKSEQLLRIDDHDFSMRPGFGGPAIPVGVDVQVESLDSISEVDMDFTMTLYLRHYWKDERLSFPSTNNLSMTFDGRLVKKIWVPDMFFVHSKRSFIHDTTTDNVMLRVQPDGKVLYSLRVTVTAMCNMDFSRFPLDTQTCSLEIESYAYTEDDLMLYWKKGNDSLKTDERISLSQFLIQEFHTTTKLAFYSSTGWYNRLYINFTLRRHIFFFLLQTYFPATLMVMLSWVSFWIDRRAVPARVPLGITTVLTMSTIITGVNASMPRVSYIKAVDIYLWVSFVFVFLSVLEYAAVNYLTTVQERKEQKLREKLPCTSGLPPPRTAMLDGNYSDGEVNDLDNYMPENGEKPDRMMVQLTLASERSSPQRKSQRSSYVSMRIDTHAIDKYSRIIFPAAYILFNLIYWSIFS
Gamma-aminobutyric acid receptor subunit alpha-4/beta-2/gamma-2 (Homo sapiens, UniProt P18507+P47870+P48169), sequence (P48169 whole entry, one chain of several): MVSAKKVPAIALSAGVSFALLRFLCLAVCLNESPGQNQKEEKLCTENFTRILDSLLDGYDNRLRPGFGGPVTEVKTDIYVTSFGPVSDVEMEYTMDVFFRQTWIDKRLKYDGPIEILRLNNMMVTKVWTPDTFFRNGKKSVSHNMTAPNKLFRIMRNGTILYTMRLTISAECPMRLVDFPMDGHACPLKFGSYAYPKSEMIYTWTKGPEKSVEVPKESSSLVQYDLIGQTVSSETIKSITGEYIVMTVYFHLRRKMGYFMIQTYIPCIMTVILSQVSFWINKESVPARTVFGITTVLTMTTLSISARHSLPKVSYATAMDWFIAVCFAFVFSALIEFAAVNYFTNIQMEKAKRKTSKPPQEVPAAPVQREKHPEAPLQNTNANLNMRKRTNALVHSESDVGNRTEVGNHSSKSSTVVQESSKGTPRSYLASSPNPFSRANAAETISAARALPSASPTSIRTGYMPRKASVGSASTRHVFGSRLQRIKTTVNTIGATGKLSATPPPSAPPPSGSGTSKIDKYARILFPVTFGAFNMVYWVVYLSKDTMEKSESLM

For the compound `NC1=N[C@H](CC(=O)O)CS1`, the EC50 in assay [1] (read-out: EC50) was 590 nM; in assay [1] (read-out: pEC50 (converted)), 5890 nM; in [2], 5400 nM; in assay [3] it was 1500 nM; in [5], 120 nM; in the assay “cells” (read-out: EC50), 370 nM. The EC50 in “cells” (read-out: pEC50 (converted)) is 372 nM. The Rmax was determined as 98% in the assay filed under Homo sapiens; 105% in assay [6]; 97% in assay [7]; 75% in assay [8]; 104% in assay [9]. For the same compound, the affinity in assay [4], expressed as Ki, was 59 nM.

These data come from ChEMBL document CHEMBL4396887, “Five-Membered N-Heterocyclic Scaffolds as Novel Amino Bioisosteres at γ-Aminobutyric Acid (GABA) Type A Receptors and GABA Transporters” (J Med Chem, 2019).
